The source of these data is publication PMC12030497, “Plasma Protein Binding, Biostability, Metabolite Profiling, and CYP450 Phenotype of TPB15 Across Different Species: A Novel Smoothened Inhibitor for TNBC Therapy” (Pharmaceutics, 2025).

“And” between values parts separate entries of the source, which are not always exact repeats. Equal entries are not always repeated.

The nature of series [1]: Metabolic stability in monkey liver microsomes (MLM). It is filed as in vitro ADME, crab-eating monkey. Particulars: MLM; for Concentration (ng/mL) of testosterone, Mean: positive control substrate. Here is the method:
(§1) A total of 450 μL liver microsomes from mice, rat, dog, monkey, and human were spiked with 0.5 μL of TPB15 solution and pre-incubated in a water bath at 37 °C for 10 min. Following this, 50 μL of NADPH were added to initiate the reaction. The concentrations of each substance in the incubation system are detailed in Table 1. After initiating the metabolic reaction, 50 μL aliquots were removed at incubation times of 0, 5, 15, 30, 45, 60, and 90 min and transferred to 150 μL of icy methanol solution containing the internal standard to terminate the reaction. The mixtures were swirled for 2 min and then centrifuged at 14,800 rpm at 4 °C for 10 min. […] Three samples were prepared in parallel at each time point. Additionally, both a positive control group and a blank control group were established. In the positive control group, substrate testosterone was incubated with liver microsomes from mice, rat, dog, monkey, and human. The concentrations of substrate testosterone were measured at 0 and 90 min, and the changes in concentration before and after incubation were compared to confirm the activity of the liver microsomes. The blank control group included one drug-containing inactivated liver microsome sample for each species. The metabolic stability parameters, including in vitro elimination half-life (T1/2) and in vitro intrinsic clearance rate (CLint), were calculated based on this graph using the following formulas: in vitro elimination half-life (T1/2) = −0.693/k and in vitro intrinsic clearance rate (CLint) = (0.693 × incubation medium (mL))/(liver microsomes (mg) × T1/2).
(In general: Liver microsomes are vesicles of endoplasmic reticulum, rich in cytochrome P450 enzymes.)

Series [2] is described as follows: Metabolic stability in rat liver microsomes (RLM). In kind it is in vitro ADME, Sprague-Dawley rat. Particulars: RLM; for Concentration (ng/mL) of testosterone, Mean: positive control substrate. The procedure: as §1
Series [3] can be described thus: Metabolic stability in mouse liver microsomes (MouLM). Particulars: MouLM, 0 min. In kind it is in vitro ADME, KM mice. The procedure:
as §1

Series [4] can be described thus: Metabolic stability in human liver microsomes (HLM). In kind it is in vitro ADME. Particulars: HLM; for Concentration (ng/mL) of testosterone, Mean: positive control substrate. The procedure: as §1
The nature of series [5]: Metabolic stability in dog liver microsomes (DLM). In kind it is in vitro ADME, beagle dog. Particulars: DLM; for Concentration (ng/mL) of testosterone, Mean: positive control substrate. Here is the method: as §1
The target of series [6] is CYP2C9 (Homo sapiens, UniProt P11712). Particulars: inhibition of TPB15 metabolism, HLM, 90 min, Sulfaphenazole 20 μM (CYP2C9). The procedure:
(§2) The specific inhibitors of P450 were employed to evaluate the metabolic phenotype of TPB15, and the metabolic enzymes corresponding to each inhibitor and the system concentration are shown in Table 2. The specific procedure was as follows: a total of 0.5 μL of the substrate TPB15 and 0.5 μL of each specific inhibitor were mixed with 449 μL of human liver microsomes, and the mixture was incubated at 37 °C for 10 min. Subsequently, 50 μL of NADPH with a concentration of 10 mM in PBS were introduced to initiate the reaction. After 90 min, 50 μL of the reaction mixture were transferred to a 150 μL ice-cold methanol solution containing an internal standard to terminate the reaction. The mixture was vortexed for 2 min and then centrifuged at 4 °C at 14,800 rpm for 10 min. A volume of 130 μL of the supernatant was then transferred to a new EP tube, which was centrifuged again at 4 °C at 14,800 rpm for another 10 min. Finally, 5 μL of the supernatant were injected for the determination of substrate TPB15 concentration. Three parallel samples were prepared for each time point. The experiment also included a positive control group and a negative control group. In the positive control group, substrate TPB15 was incubated with human liver microsomes for 90 min without the addition of inhibitors.

In series [7] the test system is CYP450 enzymes in human liver microsomes. The series can be described thus: Metabolic enzyme phenotype of TPB15 in human liver microsomes with selective CYP450 inhibitors. In kind it is in vitro ADME. Particulars: 90 min.
Method: The specific procedure was as follows: a total of 0.5 μL of the substrate TPB15 and 0.5 μL of each specific inhibitor were mixed with 449 μL of human liver microsomes, and the mixture was incubated at 37 °C for 10 min. Subsequently, 50 μL of NADPH with a concentration of 10 mM in PBS were introduced to initiate the reaction. After 90 min, 50 μL of the reaction mixture were transferred to a 150 μL ice-cold methanol solution containing an internal standard to terminate the reaction. The mixture was vortexed for 2 min and then centrifuged at 4 °C at 14,800 rpm for 10 min. A volume of 130 μL of the supernatant was then transferred to a new EP tube, which was centrifuged again at 4 °C at 14,800 rpm for another 10 min. Finally, 5 μL of the supernatant were injected for the determination of substrate TPB15 concentration. Three parallel samples were prepared for each time point. The experiment also included a positive control group and a negative control group. In the positive control group, substrate TPB15 was incubated with human liver microsomes for 90 min without the addition of inhibitors. In the negative control group, the substrate TPB15 was incubated for 90 min without inhibitors, with human liver microsomes replaced by an equal volume of phosphate-buffered saline (PBS). The metabolic rate of TPB15 in human liver microsomes was represented by the elimination rate of the substrate TPB15.
Series [8] has as its target T1, CYP2C8 (Homo sapiens, UniProt P10632).
T1 construct: tissue Jiangsu Kejing Bio-Pharmaceutical Co., Ltd; host or cells: human liver microsomes
T1 sequence (P10632 1-490): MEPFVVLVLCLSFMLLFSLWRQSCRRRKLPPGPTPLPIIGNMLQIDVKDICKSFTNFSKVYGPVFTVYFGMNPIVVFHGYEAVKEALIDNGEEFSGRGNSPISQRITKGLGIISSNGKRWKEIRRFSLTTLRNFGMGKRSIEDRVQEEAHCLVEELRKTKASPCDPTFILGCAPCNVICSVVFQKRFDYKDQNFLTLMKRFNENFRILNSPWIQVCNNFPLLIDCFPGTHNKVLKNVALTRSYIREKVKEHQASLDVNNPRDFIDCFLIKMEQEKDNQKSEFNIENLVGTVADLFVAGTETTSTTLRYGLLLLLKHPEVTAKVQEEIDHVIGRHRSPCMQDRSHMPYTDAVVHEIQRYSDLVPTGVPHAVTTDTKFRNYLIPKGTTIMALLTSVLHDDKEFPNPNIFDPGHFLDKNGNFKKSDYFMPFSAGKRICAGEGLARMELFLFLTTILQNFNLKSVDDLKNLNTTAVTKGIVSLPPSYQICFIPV
The experiment in a line: TPB15 metabolism in human liver microsomes with CYP2C8 inhibitor. It is filed as in vitro ADME. Particulars: inhibition of TPB15 metabolism, HLM, 90 min, Quercetin 20 μM (CYP2C8). The procedure: Three parallel samples were prepared for each time point.

The target of series [9] is T2, CYP2A6 (Homo sapiens, UniProt P11509).
T2 construct: tissue Jiangsu Kejing Bio-Pharmaceutical Co., Ltd; host or cells: human liver microsomes
T2 sequence (P11509 1-494): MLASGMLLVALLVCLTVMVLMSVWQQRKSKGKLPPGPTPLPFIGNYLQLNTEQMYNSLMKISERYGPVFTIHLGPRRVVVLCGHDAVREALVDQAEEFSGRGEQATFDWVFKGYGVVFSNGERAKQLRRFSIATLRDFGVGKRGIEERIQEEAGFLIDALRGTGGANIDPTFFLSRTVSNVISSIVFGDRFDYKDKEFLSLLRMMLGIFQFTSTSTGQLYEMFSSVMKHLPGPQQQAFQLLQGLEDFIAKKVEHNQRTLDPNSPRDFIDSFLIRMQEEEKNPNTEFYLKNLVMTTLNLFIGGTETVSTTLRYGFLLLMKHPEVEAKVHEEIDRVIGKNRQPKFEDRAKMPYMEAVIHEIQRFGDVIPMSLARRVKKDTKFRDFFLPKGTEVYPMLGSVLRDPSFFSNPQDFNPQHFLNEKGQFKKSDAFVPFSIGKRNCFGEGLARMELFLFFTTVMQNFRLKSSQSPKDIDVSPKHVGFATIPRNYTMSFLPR
The series can be described thus: TPB15 metabolism in human liver microsomes with CYP2A6 inhibitor. In kind it is in vitro ADME. Particulars: inhibition of TPB15 metabolism, HLM, 90 min, Coumarin 25 μM (CYP2A6). Here is the method: as §2

Chain of CYP2C9 (P11712 whole entry): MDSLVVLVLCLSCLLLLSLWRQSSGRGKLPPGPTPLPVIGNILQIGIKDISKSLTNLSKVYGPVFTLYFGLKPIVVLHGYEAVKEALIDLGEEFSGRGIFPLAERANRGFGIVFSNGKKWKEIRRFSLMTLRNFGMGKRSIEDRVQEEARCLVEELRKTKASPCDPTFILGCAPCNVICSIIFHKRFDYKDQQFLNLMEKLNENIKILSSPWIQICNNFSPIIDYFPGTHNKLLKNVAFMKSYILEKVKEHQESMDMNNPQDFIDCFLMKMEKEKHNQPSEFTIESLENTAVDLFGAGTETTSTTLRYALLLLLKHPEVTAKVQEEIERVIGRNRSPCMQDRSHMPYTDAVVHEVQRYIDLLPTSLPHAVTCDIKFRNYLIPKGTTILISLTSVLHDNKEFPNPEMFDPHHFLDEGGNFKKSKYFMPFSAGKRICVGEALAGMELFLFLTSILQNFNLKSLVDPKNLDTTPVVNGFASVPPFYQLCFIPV

For `C[C@]12CC[C@H]3[C@@H](CCC4=CC(=O)CC[C@@]43C)[C@@H]1CC[C@@H]2O` [testosterone], the “Concentration (ng/mL) of testosterone, single samples (serial number 1-3)” value in series [1] (0 min) was 293 ng/mL and 385 ng/mL and 301 ng/mL; in series [1] (90 min), 29.2 ng/mL and 39.7 ng/mL and 38.2 ng/mL; in [2] (0 min) it was 331 ng/mL and 303 ng/mL; in series [3] it was 400 ng/mL and 314 ng/mL and 356 ng/mL; in series [4] (0 min) it was 273 ng/mL and 379 ng/mL and 308 ng/mL; in series [4] (90 min), 19.2 ng/mL and 22.9 ng/mL and 34.7 ng/mL. The “Concentration (ng/mL) of testosterone, single samples (serial number 1-3)” value in [5] (0 min) was 300 ng/mL and 364 ng/mL and 375 ng/mL. Moreover, the “Concentration (ng/mL) of testosterone, Mean” value in [1] (0 min) came out at 326.4 ng/mL; in [1] (90 min), 35.7 ng/mL; in series [2] (0 min), 321.7 ng/mL; in series [2] (90 min) it was 22.6 ng/mL; in [3] (positive control substrate), 356.7 ng/mL; in [4] (0 min), 320.0 ng/mL. The “Concentration (ng/mL) of testosterone, Mean” value in series [4] (90 min) was 25.6 ng/mL; in [5] (0 min), 346.3 ng/mL; in [5] (90 min), 17.5 ng/mL.
As to `Nc1ccc(S(=O)(=O)Nc2ccnn2-c2ccccc2)cc1` [Sulfaphenazole, reference compound], the “Inhibitor Rate (%)” value in series [6] amounted to 81.22%. Also, the “effect of selective CYP450 inhibitor on TPB15 metabolism (significance vs positive control group)” value in series [7] is “significantly inhibited”.
For `O=c1c(O)c(-c2ccc(O)c(O)c2)oc2cc(O)cc(O)c12` [Quercetin], the “Inhibitor Rate (%)” value in series [8] worked out at 8.63%.
For the compound `O=c1ccc2ccccc2o1` [Coumarin], in series [9], the “Inhibitor Rate (%)” value was 6.60%.
